Data published in the supplement of paper PMC10307832.

Columns and labels:
Test in all cases: relative viability (nuclei count vs DMSO), 5 days (fraction); higher = more cells survive
Pazopanib + Pictilisib = compound: Cc1ccc(Nc2nccc(N(C)c3ccc4c(C)n(C)nc4c3)n2)cc1S(N)(=O)=O [Pazopanib] + CS(=O)(=O)N1CCN(Cc2cc3nc(-c4cccc5[nH]ncc45)nc(N4CCOCC4)c3s2)CC1 [Pictilisib] (partner 1 µM)
In short: (§1)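 After 5 days of treatment, lung cancer cells in 1536-well plates were fixed and stained in a single step (final 0.05% Triton X-100, 1% formaldehyde, 1 ug/ml Hoechst) and their nuclei counted on 4× images. Treatment had been applied by pin tool the day after seeding as one drug alone or as a fixed anchor-drug dose with five library-drug doses (not always all listed) in √10 steps. Relative viability is the nuclei count of treated wells divided by that of vehicle wells, and values are medians of duplicate plates.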

Pazopanib + Trametinib = compound: Cc1ccc(Nc2nccc(N(C)c3ccc4c(C)n(C)nc4c3)n2)cc1S(N)(=O)=O [Pazopanib] + CC(=O)Nc1cccc(-n2c(=O)n(C3CC3)c(=O)c3c(Nc4ccc(I)cc4F)n(C)c(=O)c(C)c32)c1 [Trametinib] (partner 0.02 µM)
In short: as §1

Ponatinib + Foretinib = compound: Cc1ccc(C(=O)Nc2ccc(CN3CCN(C)CC3)c(C(F)(F)F)c2)cc1C#Cc1cnc2cccnn12 [Ponatinib] + COc1cc2c(Oc3ccc(NC(=O)C4(C(=O)Nc5ccc(F)cc5)CC4)cc3F)ccnc2cc1OCCCN1CCOCC1 [Foretinib] (partner 0.25 µM)
In short: as §1

Ponatinib + Crizotinib = compound: Cc1ccc(C(=O)Nc2ccc(CN3CCN(C)CC3)c(C(F)(F)F)c2)cc1C#Cc1cnc2cccnn12 [Ponatinib] + C[C@@H](Oc1cc(-c2cnn(C3CCNCC3)c2)cnc1N)c1c(Cl)ccc(F)c1Cl [Crizotinib] (partner 1 µM)
In short: as §1

Cell Line | relative viability (Pazopanib + Pictilisib; first compound 0.03162 µM) | relative viability (Pazopanib + Pictilisib; first compound 0.1 µM) | relative viability (Pazopanib + Pictilisib; first compound 0.3162 µM) | relative viability (Pazopanib + Pictilisib; first compound 1 µM) | relative viability (Pazopanib + Trametinib; first compound 0.01 µM) | relative viability (Pazopanib + Trametinib; first compound 0.03162 µM) | relative viability (Pazopanib + Trametinib; first compound 0.1 µM) | relative viability (Pazopanib + Trametinib; first compound 0.3162 µM) | relative viability (Pazopanib + Trametinib; first compound 1 µM) | relative viability (Ponatinib + Foretinib; first compound 0.002 µM) | relative viability (Ponatinib + Foretinib; first compound 0.006325 µM) | relative viability (Ponatinib + Foretinib; first compound 0.06325 µM) | relative viability (Ponatinib + Foretinib; first compound 0.2 µM) | relative viability (Ponatinib + Crizotinib; first compound 0.002 µM) | relative viability (Ponatinib + Crizotinib; first compound 0.006325 µM) | relative viability (Ponatinib + Crizotinib; first compound 0.06325 µM) | relative viability (Ponatinib + Crizotinib; first compound 0.2 µM) | relative viability (Pazopanib + Pictilisib; first compound 0.01 µM)
NCI-H1355 | 0.412 | 0.421 | 0.508 | 0.638 | 0.363 | 0.409 | 0.397 | 0.446 | 0.534 | 0.988 | 0.943 | 1.1 | 0.971 | 0.989 | 1.06 | 1.16 | 1.15 | 
HOP-62 | 0.768 |  | 0.874 | 0.874 | 0.378 | 0.371 | 0.421 | 0.427 | 0.5 | 0.999 | 1 | 1 | 0.914 | 0.876 | 0.94 | 0.901 | 0.917 | 0.479
NCI-H2085 | 0.463 | 0.47 | 0.429 | 0.443 | 0.44 | 0.518 | 0.568 | 0.574 | 0.592 | 0.989 | 0.836 | 0.879 | 0.832 | 0.837 | 0.704 | 0.939 | 0.842 | 0.413
